IC50 data for 18 compounds are collected here from patent US9809574B2, “Isoindoline or isoquinoline compounds, a process for their preparation and pharmaceutical compositions containing them” (LES LABORATOIRES SERVIER, priority 2013, dated 2017).

The test system of assay [1] is RS4; 11 leukaemia cell line. The assay can be described thus: In vitro cytotoxicity, Microculture Tetrazolium Assay (MTT). Format: cell-based. The settings on record: Homo sapiens, 11 cells exposed for 48 hours. As for the experimental part: The cytotoxicity studies were carried out on the RS4; 11 leukaemia cell line and on H146 small Cell Lung Carcinoma cell line. The cells are distributed onto microplates and exposed to the test compounds for 48 hours. The cell viability is then quantified by a colorimetric assay, the Microculture Tetrazolium Assay (Cancer Res., 1987, 47, 939-942).

Another assay has as its target Bcl-2 protein (histag-Bcl-2, UniProtKB P10415) (Homo sapiens (Human), UniProt P10415). The assay can be described thus: Inhibition of Bcl-2 by the fluorescence polarisation technique. Particulars: fluorescence polarisation test; incubation for 2 hours; read-out: IC50 (nM) Bcl-2 FP. Format: binding. An excerpt: For partial inhibitors, the percentage fluorescence polarisation inhibition for a given concentration of the test compound is indicated.
A general note: Fluorescence polarisation rises when a labelled molecule tumbles more slowly, as on binding a larger partner.

As a reminder, the IC50 is the concentration that gives 50% inhibition.

Where only a bound is given, the exact number is not on record here.

Sequence of Bcl-2 protein (P10415 whole entry): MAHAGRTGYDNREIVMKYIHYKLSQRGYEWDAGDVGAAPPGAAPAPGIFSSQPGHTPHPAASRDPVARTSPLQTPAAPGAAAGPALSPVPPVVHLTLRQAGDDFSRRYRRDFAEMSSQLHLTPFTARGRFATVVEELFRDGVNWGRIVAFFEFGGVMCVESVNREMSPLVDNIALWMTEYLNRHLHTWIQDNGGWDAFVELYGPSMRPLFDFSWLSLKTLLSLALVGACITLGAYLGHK

`C[C@@H]1Cc2ccccc2CN1C(=O)c1cc2c(cc1-c1cc(C(=O)N(C)c3ccc(O)cc3)c3n1CCCC3)CCN(C(=O)Oc1ccc(NCCN(C)C)cc1)C2` [Example 153, 4-{[2-(Dimethylamino)ethyl]amino}phenyl 6-{1-[(4-hydroxyphenyl)(methyl)carbamoyl]-5,6,7,8-tetrahydroindolizin-3-yl}-7-[(3R)-3-methyl-1,2,3,4-tetrahydroisoquinoline-2-carbonyl]-1,2,3,4-tetrahydroisoquinoline-2-carboxylate]: the IC50 in assay [1] is 3.6 nM; at Bcl-2 protein, 4.2 nM.
The like results for `C[C@@H]1Cc2ccccc2CN1C(=O)c1cc2c(cc1-c1cc(C(=O)N(C)c3ccc(O)cc3)c3n1CCCC3)CCN(C(=O)Cc1ccc(OCCN(C)C)cc1)C2` [Example 154, 3-[2-(2-{4-[2-(Dimethylamino)ethoxy]phenyl}acetyl)-7-[(3R)-3-methyl-1,2,3,4-tetrahydroisoquinoline-2-carbonyl]-1,2,3,4-tetrahydroisoquinolin-6-yl]-N-(4-hydroxyphenyl)-N-methyl-5,6,7,8-tetrahydroindolizine-1-carboxamide] were, in that order, 5.9 nM and 3.9 nM.
The like results for `C[C@@H]1Cc2ccccc2CN1C(=O)c1cc2c(cc1-c1cc(C(=O)N(C)c3ccc(O)cc3)c3n1CCCC3)CCN(C(=O)Oc1ccc(CCC(=O)N(C)C)cc1)C2` [Example 155, 4-[2-(Dimethylcarbamoyl)ethyl]phenyl 6-{1-[(4-hydroxyphenyl)(methyl)carbamoyl]-5,6,7,8-tetrahydroindolizin-3-yl}-7-[(3R)-3-methyl-1,2,3,4-tetrahydroisoquinoline-2-carbonyl]-1,2,3,4-tetrahydroisoquinoline-2-carboxylate] were, in that order, 2.9 nM and 3.2 nM.
`CN(C(=O)c1cc(-c2cc3c(cc2C(=O)N2Cc4ccccc4C[C@H]2CN2CCOCC2)CN(C(=O)COc2ccccc2)C3)n2c1CCCC2)c1ccc(O)cc1` [Example 156, N-(4-Hydroxyphenyl)-N-methyl-3-{6-[(3S)-3-(morpholin-4-ylmethyl)-1,2,3,4-tetrahydroisoquinoline-2-carbonyl]-2-(2-phenoxyacetyl)-2,3-dihydro-1H-isoindol-5-yl}-5,6,7,8-tetrahydroindolizine-1-carboxamide]: the IC50 in assay [1] turned out to be 121 nM; on Bcl-2 protein it was 6.8 nM.
The like results for `Cc1c(C(=O)N(C)c2ccc(O)cc2)cc(-c2cc3c(cc2C(=O)N2Cc4ccccc4C[C@H]2C)CN(C(=O)OC2CCS(=O)(=O)C2)C3)n1C` (stereo partly drawn) [Example 157, 1,1-Dioxo-1λ^6-thiolan-3-yl 5-{4-[(4-hydroxyphenyl)(methyl)carbamoyl]-1,5-dimethyl-1H-pyrrol-2-yl}-6-[(3R)-3-methyl-1,2,3,4-tetrahydroisoquinoline-2-carbonyl]-2,3-dihydro-1H-isoindole-2-carboxylate] were, in that order, more than 600 nM and 21 nM.
The like results for `C[C@@H]1Cc2ccccc2CN1C(=O)c1cc2c(cc1-c1cc(C(=O)N(c3ccc(O)cc3)c3cnc4c(ccn4C)c3)c3n1CCCC3)CN(C(=O)COc1ccccc1)C2` [Example 158, N-(4-Hydroxyphenyl)-3-{6-[(3R)-3-methyl-1,2,3,4-tetrahydroisoquinoline-2-carbonyl]-2-(2-phenoxyacetyl)-2,3-dihydro-1H-isoindol-5-yl}-N-{1-methyl-1H-pyrrolo[2,3-b]pyridin-5-yl}-5,6,7,8-tetrahydroindolizine-1-carboxamide] were, in that order, 3.5 nM and 4.6 nM.
The like results for `Cc1c(C(=O)N(C)c2ccc(O)cc2)cc(-c2cc3c(cc2C(=O)N2Cc4ccccc4C[C@H]2CN2CCOCC2)CN(C(=O)COc2ccccc2)C3)n1C` [Example 159, N-(4-Hydroxyphenyl)-N,1,2-trimethyl-5-{6-[(3S)-3-(morpholin-4-ylmethyl)-1,2,3,4-tetrahydroisoquinoline-2-carbonyl]-2-(2-phenoxyacetyl)-2,3-dihydro-1H-isoindol-5-yl}-1H-pyrrole-3-carboxamide] were, in that order, 163 nM and 8.5 nM.
Consider `Cc1c(C(=O)N(C)c2ccc(O)cc2)cc(-c2cc3c(cc2C(=O)N2Cc4ccccc4C[C@H]2C)CN(C(=O)COCc2ccccc2)C3)n1C` [Example 160, 5-{2-[2-(Benzyloxy)acetyl]-6-[(3R)-3-methyl-1,2,3,4-tetrahydroisoquinoline-2-carbonyl]-2,3-dihydro-1H-isoindol-5-yl}-N-(4-hydroxyphenyl)-N,1,2-trimethyl-1H-pyrrole-3-carboxamide], for which the IC50 in assay [1] turned out to be 86 nM; on Bcl-2 protein, 6.9 nM.
The like results for `CCCCN(CCCC)C(=O)c1cc(-c2cc3c(cc2C(=O)N2CCc4ccccc4C2)CN(C(=O)Oc2ccccc2)CC3)n(C)c1C` [Example 161, Phenyl 6-[4-(dibutylcarbamoyl)-1,5-dimethyl-1H-pyrrol-2-yl]-7-(1,2,3,4-tetrahydroisoquinoline-2-carbonyl)-1,2,3,4-tetrahydroisoquinoline-2-carboxylate] were, in that order, more than 150 nM and 68 nM.
For the compound `CCCCN(CCCC)C(=O)c1cc(-c2cc3c(cc2C(=O)N2CCc4ccccc4C2)CN(C(=O)Cc2ccccc2)CC3)n(C)c1C` [Example 162, N,N-Dibutyl-1,2-dimethyl-5-[2-(2-phenylacetyl)-7-(1,2,3,4-tetrahydroisoquinoline-2-carbonyl)-1,2,3,4-tetrahydroisoquinolin-6-yl]-1H-pyrrole-3-carboxamide], the IC50 is more than 150 nM in assay [1] and 33 nM on Bcl-2 protein.
The like results for `CCCCN(CCCC)C(=O)c1cc(-c2cc3c(cc2C(=O)N2Cc4ccccc4C[C@H]2C)CN(C(=O)Oc2ccccc2)CC3)n(C)c1C` [Example 163, Phenyl 6-[4-(dibutylcarbamoyl)-1,5-dimethyl-1H-pyrrol-2-yl]-7-[(3R)-3-methyl-1,2,3,4-tetrahydroisoquinoline-2-carbonyl]-1,2,3,4-tetrahydroisoquinoline-2-carboxylate] were, in that order, more than 150 nM and 27 nM.
Take `CCCCN(CCCC)C(=O)c1cc(-c2cc3c(cc2C(=O)N2Cc4ccccc4C[C@H]2C)CN(C(=O)Cc2ccccc2)CC3)n(C)c1C` [Example 164, N,N-Dibutyl-1,2-dimethyl-5-{7-[(3R)-3-methyl-1,2,3,4-tetrahydroisoquinoline-2-carbonyl]-2-(2-phenylacetyl)-1,2,3,4-tetrahydroisoquinolin-6-yl}-1H-pyrrole-3-carboxamide]: the IC50 in assay [1] was more than 150 nM; at Bcl-2 protein it was 14 nM.
The like results for `CCCCN(CCCC)C(=O)c1cc(-c2cc3c(cc2C(=O)N2Cc4ccccc4C[C@H]2CN2CCOCC2)CN(C(=O)Cc2ccccc2)CC3)n(C)c1C` [Example 165, N,N-Dibutyl-1,2-dimethyl-5-{7-[(3S)-3-(morpholin-4-ylmethyl)-1,2,3,4-tetrahydroisoquinoline-2-carbonyl]-2-(2-phenylacetyl)-1,2,3,4-tetrahydroisoquinolin-6-yl}-1H-pyrrole-3-carboxamide] were, in that order, more than 150 nM and 18 nM.
The like results for `CN(C(=O)c1cc(-c2cc3c(cc2C(=O)N2Cc4ccccc4C[C@H]2CN2CCOCC2)CN(C(=O)COc2ccccc2)C3)n2ccccc12)c1ccc(O)cc1` [Example 166, N-(4-Hydroxyphenyl)-N-methyl-3-{6-[(3S)-3-(morpholin-4-ylmethyl)-1,2,3,4-tetrahydroisoquinoline-2-carbonyl]-2-(2-phenoxyacetyl)-2,3-dihydro-1H-isoindol-5-yl}indolizine-1-carboxamide] were, in that order, 58 nM and 6.4 nM.
The like results for `C[C@@H]1Cc2ccccc2CN1C(=O)c1cc2c(cc1-c1cc(C(=O)N(C)c3ccc(O)cc3)c3ccccn13)CN(C(=O)COc1ccccc1)C2` [Example 167, N-(4-Hydroxyphenyl)-N-methyl-3-{6-[(3R)-3-methyl-1,2,3,4-tetrahydroisoquinoline-2-carbonyl]-2-(2-phenoxyacetyl)-2,3-dihydro-1H-isoindol-5-yl}indolizine-1-carboxamide] were, in that order, 20 nM and 6.5 nM.
As for `Cc1ccc(OC(=O)N2Cc3cc(C(=O)N4Cc5ccccc5C[C@H]4C)c(-c4cc(C(=O)N(C)c5ccc(O)cc5)c5n4CCCC5)cc3C2)cc1` [Example 168, 4-Methylphenyl 5-{1-[(4-hydroxyphenyl)(methyl)carbamoyl]-5,6,7,8-tetrahydroindolizin-3-yl}-6-[(3R)-3-methyl-1,2,3,4-tetrahydroisoquinoline-2-carbonyl]-2,3-dihydro-1H-isoindole-2-carboxylate], the IC50 in assay [1] is 6.6 nM; at Bcl-2 protein, 5.7 nM.
As for `C[C@@H]1Cc2ccccc2CN1C(=O)c1cc2c(cc1-c1cc(C(=O)N(C)c3ccc(O)cc3)c3n1CCCC3)CCN(C(=O)Cc1cccc(N3CCN(C)CC3)c1)C2` [Example 169, N-(4-Hydroxyphenyl)-N-methyl-3-{7-[(3R)-3-methyl-1,2,3,4-tetrahydroisoquinoline-2-carbonyl]-2-{2-[3-(4-methylpiperazin-1-yl)phenyl]acetyl}-1,2,3,4-tetrahydroisoquinolin-6-yl}-5,6,7,8-tetrahydroindolizine-1-carboxamide], the IC50 stood at 3 nM in assay [1] and 3.3 nM on Bcl-2 protein.
The like results for `CNC(=O)N1Cc2cc(C(=O)N3Cc4ccccc4C[C@H]3C)c(-c3cc(C(=O)N(C)c4ccc(O)cc4)c(C)n3C)cc2C1` [Example 170, 5-{4-[(4-Hydroxyphenyl)(methyl)carbamoyl]-1,5-dimethyl-1H-pyrrol-2-yl}-N-methyl-6-[(3R)-3-methyl-1,2,3,4-tetrahydroisoquinoline-2-carbonyl]-2,3-dihydro-1H-isoindole-2-carboxamide] were, in that order, 491 nM and 12 nM.
